Assay results taken from EP4670722A1, “PROPHYLACTIC OR AMELIORATING AGENT FOR CELL AGING” (Kyowa Pharma Chemical Co., Ltd., priority 2023, dated 2024).

What was measured:
IL-1α = IL-1α expression analysis (ELISA) under H2O2; type: cell-based, Human; conditions: HaCaT, 20 µM H2O2, 50 µg/mL to 200 µg/mL, 24 hours; suppression increased as content increased; Fig. 10
Description: Human normal epidermal keratinocytes (HaCaT) were cultured in DMEM containing 10% FBS. The cultured cells were collected by trypsin treatment. The collected cells were seeded in a 48-well plate at a cell density of 6 x 10^4 cells/well and cultured for 24 hours in a 37°C, 5% CO2 incubator. After culturing, the cells were precultured for 2 hours in FBS-free DMEM containing the test sample (2'-FL and sucrose) at 50 µg/mL, 100 µg/mL, or 200 µg/mL, or in FBS-free DMEM not containing the test sample. Thereafter, the medium was replaced with FBS-free DMEM containing the test sample at 50 µg/mL, 100 µg/mL, or 200 µg/mL and 20 µM H2O2, or with FBS-free DMEM not containing the test sample but containing 20 µM H2O2, respectively, and after culturing for an additional 24 hours in a 37°C, 5% CO2 incubator, the culture supernatant was collected. The culture supernatant was centrifuged, and the resulting supernatant was used as a sample. […]
Since most IL-1α is released extracellularly, the IL-1α expression level was evaluated by measuring IL-1α in the supernatant medium by ELISA (AuthentiKine™ IL-1 alpha ELISA Kit, manufactured by Proteintech). […] The relative value of the IL-1α amount when each test sample was added was calculated, with the IL-1α amount in the control set to 1.

laminin = experiment: Laminin secretion amount (ELISA) of tunicamycin-treated epidermal keratinocytes; type: cell-based, Human; conditions: HaCaT, tunicamycin 0.1 µg/mL, 50 µg/mL to 200 µg/mL, 24 hours; recovery increased as content increased; Fig. 7
Description: Human normal epidermal keratinocytes (HaCaT) were cultured using DMEM containing 10% FBS. The cultured cells were collected by trypsin treatment. The collected cells were seeded in a 24-well plate, and when they reached 100% confluence, tunicamycin was added at 0.1 µg/mL, and after 24 hours, the culture supernatant was collected. A group was also prepared in which FBS-free DMEM medium containing a test sample (2'-fucosyllactose) at 50 µg/mL, 100 µg/mL, or 200 µg/mL was added simultaneously with tunicamycin, and after 24 hours, the culture supernatant was collected. The culture supernatant was centrifuged, and the resulting supernatant was used as a sample. […] This total cell protein concentration was measured by the Bradford assay.
Human normal epidermal keratinocytes were cultured and the culture supernatant was collected in the same manner as in Example 6-1, except that tunicamycin and the test sample were not added. […] This total cell protein concentration was measured by the Bradford assay.
An Enzyme-Linked Immunosorbent Assay (ELISA) method was performed using an antibody against laminin to measure the amount of laminin in the sample. […] After stopping the reaction, the absorbance at a measurement wavelength of 450 nm was measured with a microplate reader. […]

[1] = system: Human normal epidermal keratinocytes (HaCaT); experiment: Cell viability (Cell Counting Kit-8) of tunicamycin-treated epidermal keratinocytes; type: cell-based; conditions: tunicamycin 0.1 µg/mL, 50 µg/mL to 200 µg/mL, 24 hours, effect increased as content increased, Fig. 5
Description: Human normal epidermal keratinocytes (HaCaT) were cultured using DMEM containing 10% FBS. The cultured cells were collected by trypsin treatment. The collected cells were seeded in a 96-well plate, and when they reached 100% confluence, tunicamycin, an agent that induces endoplasmic reticulum stress, was added at 0.1 µg/mL, and the cells were cultured for 24 hours. A group was also prepared in which FBS-free DMEM medium containing a test sample (2'-fucosyllactose) at 50 µg/mL, 100 µg/mL, or 200 µg/mL was added simultaneously with tunicamycin, and cultured for 24 hours. After completion of culture, the viability of human normal epidermal keratinocytes was evaluated using Cell Counting Kit-8 (manufactured by Dojindo Laboratories). The measurement wavelength (As) was set to 450 nm, and the reference wavelength was set to 620 nm.
Human normal epidermal keratinocytes were cultured and the absorbance at a measurement wavelength of 450 nm was measured in the same manner as in Example 4-1, except that tunicamycin and the test sample were not added. The obtained absorbance was designated as Ab, and the cell viability represented by the above formula (1) was determined.

[2] = system: human senescent dermal fibroblasts (NB1RGB) with a PDL of 50 or more; experiment: Cell proliferation rate (MTT) of senescent dermal fibroblasts; type: cell-based; conditions: 50 µg/mL to 200 µg/mL, 2 days, suppression increased as content increased, Fig. 3
Description: Human normal dermal fibroblasts (NB1RGB) with a PDL of 30 or less and human senescent dermal fibroblasts (NB1RGB) with a PDL of 50 or more were each cultured using DMEM containing 10% FBS. The cultured cells were collected by trypsin treatment. The collected cells were seeded in a 96-well microplate at a concentration of 5.0 x 10^3 cells/well and cultured overnight. Thereafter, the cells were cultured for 2 days at 37°C in a medium for fibroblast proliferation (FBS-free) to which a test sample (sucrose or 2'-fucosyllactose) was added to a concentration of 50 µg/mL, 100 µg/mL,or 200 µg/mL. The medium was replaced with FBS-free DMEM medium, then 10 µL/well of 5 mg/mL 3-[4,5-dimethylthiazol-2-yl]-2,5-diphenyltetrazolium bromide (MTT) was added, and the cells were cultured at 37°C for 3 hours. […] After extraction, the absorbance of formazan (As, 492 nm) was measured with a microplate reader. […]
Human normal dermal fibroblasts with a PDL of 30 or less and human senescent fibroblasts with a PDL of 50 or more were each cultured and the absorbance of formazan was measured in the same manner as in Example 2-1, except that no test sample was added. The obtained absorbance was designated as Ab, and the cell proliferation rate represented by the above formula (1) was determined for each case of PDL of 30 or less and PDL of 50 or more.

C[C@@H]1O[C@@H](O[C@H]2[C@H](O[C@H]3[C@H](O)[C@@H](O)C(O)O[C@@H]3CO)O[C@H](CO)[C@H](O)[C@@H]2O)[C@@H](O)[C@H](O)[C@@H]1O (stereo partly shown) [2'-FL, 2'-fucosyllactose]
H2O2-induced promotion of IL-1α expression (IL-1α): suppressed the H2O2-induced promotion of IL-1 α expression | laminin secretion (laminin): restored laminin secretion | endoplasmic reticulum stress (cell viability) [1]: ameliorated endoplasmic reticulum stress | proliferation of senescent fibroblasts (cell proliferation rate) [2]: suppressed the proliferation of senescent fibroblasts
